Literature values as cited in US20200268761A1 (CIPLA LIMITED, priority 2017, published 2020).

Columns and labels:
p-glycoprotein = p-glycoprotein (Homo sapiens, UniProt P08183)
CYP3A4 = CYP3A4 (Homo sapiens, UniProt P08684); settings: major drug metabolizing enzyme
Sequence of CYP3A4 (P08684 whole entry, species assumed): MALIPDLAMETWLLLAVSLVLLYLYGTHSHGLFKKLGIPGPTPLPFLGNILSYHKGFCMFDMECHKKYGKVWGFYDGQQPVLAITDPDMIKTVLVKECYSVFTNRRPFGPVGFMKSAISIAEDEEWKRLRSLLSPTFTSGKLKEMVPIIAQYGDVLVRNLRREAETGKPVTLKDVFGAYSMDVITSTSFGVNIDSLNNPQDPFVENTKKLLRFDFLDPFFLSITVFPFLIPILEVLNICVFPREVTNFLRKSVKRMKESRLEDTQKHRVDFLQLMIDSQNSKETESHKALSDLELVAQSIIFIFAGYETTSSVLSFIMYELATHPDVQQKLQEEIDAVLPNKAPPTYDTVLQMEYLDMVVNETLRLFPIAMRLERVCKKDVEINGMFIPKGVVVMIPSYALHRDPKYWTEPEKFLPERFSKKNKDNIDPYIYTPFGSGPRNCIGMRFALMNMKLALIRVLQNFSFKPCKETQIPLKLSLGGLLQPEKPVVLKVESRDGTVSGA

Sequence of p-glycoprotein (P08183 whole entry): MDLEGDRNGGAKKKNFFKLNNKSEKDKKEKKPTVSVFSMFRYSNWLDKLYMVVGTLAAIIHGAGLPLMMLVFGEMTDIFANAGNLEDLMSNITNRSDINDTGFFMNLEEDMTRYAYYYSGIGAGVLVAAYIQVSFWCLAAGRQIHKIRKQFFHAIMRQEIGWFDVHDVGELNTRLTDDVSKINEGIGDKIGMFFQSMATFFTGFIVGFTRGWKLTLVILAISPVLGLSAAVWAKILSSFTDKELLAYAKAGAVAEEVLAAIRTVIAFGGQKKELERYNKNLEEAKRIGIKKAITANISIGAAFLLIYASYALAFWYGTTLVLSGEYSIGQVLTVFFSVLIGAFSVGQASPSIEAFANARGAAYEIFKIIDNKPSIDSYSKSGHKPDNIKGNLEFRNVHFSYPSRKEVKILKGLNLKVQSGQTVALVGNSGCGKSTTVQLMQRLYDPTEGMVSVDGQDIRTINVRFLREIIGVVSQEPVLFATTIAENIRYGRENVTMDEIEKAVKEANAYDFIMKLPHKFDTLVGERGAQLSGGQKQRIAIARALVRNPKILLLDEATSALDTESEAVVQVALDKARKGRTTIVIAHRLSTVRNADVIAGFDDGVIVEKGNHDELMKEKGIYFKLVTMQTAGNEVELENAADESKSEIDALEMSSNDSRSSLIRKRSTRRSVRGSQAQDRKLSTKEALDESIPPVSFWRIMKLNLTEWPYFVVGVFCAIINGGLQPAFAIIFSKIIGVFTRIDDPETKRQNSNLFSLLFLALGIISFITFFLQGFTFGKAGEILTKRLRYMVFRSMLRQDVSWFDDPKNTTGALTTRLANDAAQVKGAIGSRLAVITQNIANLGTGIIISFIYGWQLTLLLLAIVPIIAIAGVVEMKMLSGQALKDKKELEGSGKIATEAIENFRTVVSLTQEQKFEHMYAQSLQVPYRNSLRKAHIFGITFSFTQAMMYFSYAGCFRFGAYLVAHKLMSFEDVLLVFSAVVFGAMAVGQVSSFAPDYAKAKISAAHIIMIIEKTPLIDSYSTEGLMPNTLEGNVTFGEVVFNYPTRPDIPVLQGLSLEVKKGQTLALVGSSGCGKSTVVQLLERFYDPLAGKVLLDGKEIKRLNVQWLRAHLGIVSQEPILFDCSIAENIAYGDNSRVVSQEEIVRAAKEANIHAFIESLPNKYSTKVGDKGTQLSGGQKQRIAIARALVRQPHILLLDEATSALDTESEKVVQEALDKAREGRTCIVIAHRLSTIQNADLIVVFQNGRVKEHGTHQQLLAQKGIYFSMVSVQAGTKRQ

| solubility in HCl at pH 1.2 (HCl, pH 1.2) | solubility in N,N-dimethylformamide, tetrahydrofuran and dichloromethane (N,N-dimethylformamide, tetrahydrofuran, dichloromethane) | solubility in acetone and methanol (acetone, methanol) | solubility in ethyl acetate, ethanol and acetonitrile (ethyl acetate, ethanol, acetonitrile) | solubility in non-polar solvents (non-polar solvents such as hexane and heptanes) | solubility in water (water, ibrutinib base) | inhibition of p-glycoprotein (p-glycoprotein) | inhibition of CYP3A4 (CYP3A4) | Compound |
| --- | --- | --- | --- | --- | --- | --- | --- | --- |
| slightly soluble | freely soluble | soluble | sparingly soluble | practically insoluble | practically insoluble | – | – | C=CC(=O)N1CCC[C@@H](n2nc(-c3ccc(Oc4ccccc4)cc3)c3c(N)ncnc32)C1 [Ibrutinib] |
| – | – | – | – | – | – | inhibits | inhibits | O=C(/C=C/C=C/c1ccc2c(c1)OCO2)N1CCCCC1 [Piperine, (E.E.) 1˜[5,3-benzodioxyl-5-yl)-1-oxo-2,4-pentadienyl-piperidine] |
